Laboratory results published in patent US20240336608A1, “IL4I1 INHIBITORS AND METHODS OF USE” (Merck Sharp & Dohme LLC, priority 2023, published 2024).

Target: T1, recombinant IL4I1 (Homo sapiens, UniProt Q96RQ9)
T1 construct: purchased R&D Systems 5684-AO-020
T1 sequence (Q96RQ9 22-567): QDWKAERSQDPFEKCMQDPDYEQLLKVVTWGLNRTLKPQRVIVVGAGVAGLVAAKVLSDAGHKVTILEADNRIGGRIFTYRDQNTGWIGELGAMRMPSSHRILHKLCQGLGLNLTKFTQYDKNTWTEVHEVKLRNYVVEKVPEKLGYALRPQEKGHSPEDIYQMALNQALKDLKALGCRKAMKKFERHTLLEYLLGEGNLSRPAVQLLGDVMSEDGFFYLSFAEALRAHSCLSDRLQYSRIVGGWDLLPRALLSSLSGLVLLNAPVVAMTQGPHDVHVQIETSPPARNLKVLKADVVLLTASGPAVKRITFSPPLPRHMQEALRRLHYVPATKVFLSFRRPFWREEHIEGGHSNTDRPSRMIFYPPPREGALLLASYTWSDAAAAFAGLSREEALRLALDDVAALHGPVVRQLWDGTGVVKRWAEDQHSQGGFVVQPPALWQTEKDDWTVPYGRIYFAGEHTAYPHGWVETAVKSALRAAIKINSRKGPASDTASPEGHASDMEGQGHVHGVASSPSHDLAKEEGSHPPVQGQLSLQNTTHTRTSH
Test: IL4I1 Enzymatic Assay (Amplex Red/HRP coupled detection of H2O2, fluorescence)
Type: biochemical
Details: 1 nM recombinant IL4I1; four-hour pre-incubation with compound; 1 mM each Phe, Tyr, Trp; ten-point titration
Summary of the method: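 H2O2 output was coupled to resorufin fluorescence (ex 544/em 590) via 0.05 mM Amplex Red and 1 U/mL HRP. Substrate: Phe, Tyr, Trp at 1 mM each; enzyme 1 nM, 4 h compound pre-incubation, 120 min reaction, pH 7.0 Hepes. EC50 by nonlinear four-parameter regression, 1:3 ten-point titration.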

Compound | EC50 [µM]
Cn1ccc(C(=O)NCc2nnc(-c3ccccc3)s2)c1 [Example 51, 1-methyl-N-[(5-phenyl-1,3,4-thiadiazol-2-yl)methyl]pyrrole-3-carboxamide] | 0.118
CCn1cc(C(=O)NCc2nnc(-c3ccccc3)s2)cn1 [Example 43, 1-ethyl-N-[(5-phenyl-1,3,4-thiadiazol-2-yl)methyl]pyrazole-4-carboxamide] | 0.177
CC1(O)CCC(n2cc(C(=O)NCc3nnc(-c4ccccc4)s3)nn2)CC1 (centres unmarked) [Example 97, 1-(4-hydroxy-4-methylcyclohexyl)-N-((5-phenyl-1,3,4-thiadiazol-2-yl)methyl)-1H-1,2,3-triazole-4-carboxamide] | 0.486
Cc1ccc(-n2cc(C(=O)NCc3nnc(-c4ccccc4F)s3)nn2)c(C)n1 [Example 114, 1-(2,6-dimethylpyridin-3-yl)-N-((5-(2-fluorophenyl)-1,3,4-thiadiazol-2-yl)methyl)-1H-1,2,3-triazole-4-carboxamide] | 0.037
Cn1cc(C(=O)NCc2cc(-c3ccc(Cl)cc3)no2)nn1 [Example 217, N-{[3-(4-chlorophenyl)-1,2-oxazol-5-yl]methyl}-1-methyl-1H-1,2,3-triazole-4-carboxamide] | 0.648
O=C(NCc1cc(-c2ccccc2)no1)c1cn(CC(F)F)nn1 [Example 291, 1-(2,2-difluoroethyl)-N-((3-phenylisoxazol-5-yl)methyl)-1H-1,2,3-triazole-4-carboxamide] | 0.012
CNC(=O)C(C)(C)n1cc(C(=O)NCc2nnc(-c3ccccc3)s2)nn1 [Example 322, 1-(2-methyl-1-(methylamino)-1-oxopropan-2-yl)-N-((5-phenyl-1,3,4-thiadiazol-2-yl)methyl)-1H-1,2,3-triazole-4-carboxamide] | 0.026
O=C(NCc1nnc(-c2ccccc2)s1)c1cc(C(F)(F)F)no1 [Example 214, N-[(5-phenyl-1,3,4-thiadiazol-2-yl)methyl]-3-(trifluoromethyl)-1,2-oxazole-5-carboxamide] | 0.251
O=C(NCc1nnc(-c2ccccc2)s1)c1cn([C@H]2C[C@@H](O)C2)nn1 [Example 282] | 0.005
O=C(NCc1nnc(-c2ccccc2)s1)c1cn([C@@H]2COC[C@@H]2F)nn1 [Example 198, 1-((3R,4R)-4-fluorotetrahydrofuran-3-yl)-N-((5-phenyl-1,3,4-thiadiazol-2-yl)methyl)-1H-1,2,3-triazole-4-carboxamide] | 0.017
O=C(NCc1nnc(-c2ccccc2)s1)c1cn(-c2ccccn2)nn1 [Example 310, N-((5-phenyl-1,3,4-thiadiazol-2-yl)methyl)-1-(pyridin-2-yl)-1H-1,2,3-triazole-4-carboxamide] | 0.182
Cc1nc(C2COC2)ccc1-n1cc(C(=O)NCc2nnc(-c3ccccc3)s2)nn1 [Example 277, 1-(2-methyl-6-(oxetan-3-yl)pyridin-3-yl)-N-((5-phenyl-1,3,4-thiadiazol-2-yl)methyl)-1H-1,2,3-triazole-4-carboxamide] | 0.179
Cc1cc(C(=O)NCc2nnc(-c3ccccc3)s2)c(C)n1C [Example 50, 1,2,5-trimethyl-N-[(5-phenyl-1,3,4-thiadiazol-2-yl)methyl]pyrrole-3-carboxamide] | 0.537
Cn1cc(C(=O)NCc2nnc(-c3ccc(Cl)cc3)s2)nn1 [Example 296, N-((5-(4-chlorophenyl)-1,3,4-thiadiazol-2-yl)methyl)-1-methyl-1H-1,2,3-triazole-4-carboxamide] | 0.418
Cc1nc(OC(F)F)ccc1-n1cc(C(=O)NCc2nnc(-c3ccccc3)s2)nn1 [Example 301, 1-(6-(difluoromethoxy)-2-methylpyridin-3-yl)-N-((5-phenyl-1,3,4-thiadiazol-2-yl)methyl)-1H-1,2,3-triazole-4-carboxamide] | 0.008
Cc1ccc(-n2cc(C(=O)NCc3nnc(-c4ccc(F)cc4Cl)s3)nn2)c(C)n1 [Example 111, N-((5-(2-chloro-4-fluorophenyl)-1,3,4-thiadiazol-2-yl)methyl)-1-(2,6-dimethylpyridin-3-yl)-1H-1,2,3-triazole-4-carboxamide] | 0.727
CCCn1cc(C(=O)NCc2nnc(-c3ccccc3)s2)nn1 [Example 92, N-((5-phenyl-1,3,4-thiadiazol-2-yl)methyl)-1-propyl-1H-1,2,3-triazole-4-carboxamide] | 0.003
Cc1n[nH]c(C(=O)NCc2nnc(-c3ccccc3)s2)c1C [Example 42, 3,4-dimethyl-N-((5-phenyl-1,3,4-thiadiazol-2-yl)methyl)-1H-pyrazole-5-carboxamide] | 0.458

Compound | EC50 [µM]
O=C(NCc1nnc(-c2ccccc2)s1)c1cn(-c2cncnc2)nn1 [Example 316, N-((5-phenyl-1,3,4-thiadiazol-2-yl)methyl)-1-(pyrimidin-5-yl)-1H-1,2,3-triazole-4-carboxamide] | 0.241
Cn1cc(C(=O)NCc2cc(-c3cccc(F)c3)no2)nn1 [Example 226, N-{[3-(3-fluorophenyl)-1,2-oxazol-5-yl]methyl}-1-methyl-1H-1,2,3-triazole-4-carboxamide] | 0.349
Cc1ccc(-n2cc(C(=O)NCc3nnc(-c4cncs4)s3)nn2)c(C)n1 [Example 298, 1-(2,6-dimethylpyridin-3-yl)-N-((5-(thiazol-5-yl)-1,3,4-thiadiazol-2-yl)methyl)-1H-1,2,3-triazole-4-carboxamide] | 0.014
O=C(NCc1nnc(-c2ccccc2)s1)c1cn(C2(CO)CCC2)nn1 [Example 163, 1-(1-(hydroxymethyl)cyclobutyl)-N-((5-phenyl-1,3,4-thiadiazol-2-yl)methyl)-1H-1,2,3-triazole-4-carboxamide] | 0.104
O=C(NCc1nnc(-c2ccccc2)s1)c1cn(CC2CCC2)nn1 [Example 77, 1-(cyclobutylmethyl)-N-((5-phenyl-1,3,4-thiadiazol-2-yl)methyl)-1H-1,2,3-triazole-4-carboxamide] | 0.012
CC(C)c1cc(C(=O)NCc2nnc(-c3ccccc3)s2)no1 [Example 26, 5-isopropyl-N-[(5-phenyl-1,3,4-thiadiazol-2-yl)methyl]isoxazole-3-carboxamide] | 0.043
O=C(NCc1ccc(-c2ccccc2)nn1)c1cn(CC(F)F)nn1 [Example 293, 1-(2,2-difluoroethyl)-N-((6-phenylpyridazin-3-yl)methyl)-1H-1,2,3-triazole-4-carboxamide] | 0.021
O=C(NCc1nnc(-c2ccccc2)s1)c1noc2ccccc12 [Example 215, N-[(5-phenyl-1,3,4-thiadiazol-2-yl)methyl]-1,2-benzoxazole-3-carboxamide] | 0.127
Cc1ccc(-n2cc(C(=O)NCc3cc(-c4ccccn4)on3)nn2)c(C)n1 [Example 238, 1-(2,6-dimethylpyridin-3-yl)-N-((5-(pyridin-2-yl)isoxazol-3-yl)methyl)-1H-1,2,3-triazole-4-carboxamide] | 0.076
O=C(NCc1nnc(-c2ccccc2)s1)c1cn(C2CC2)nn1 [Example 268, 1-cyclopropyl-N-((5-phenyl-1,3,4-thiadiazol-2-yl)methyl)-1H-1,2,3-triazole-4-carboxamide] | 0.008
N#CC1(n2cc(C(=O)NCc3nnc(-c4ccccc4)s3)nn2)CCOC1 (centres unmarked) [Example 197, 1-(3-cyanotetrahydrofuran-3-yl)-N-((5-phenyl-1,3,4-thiadiazol-2-yl)methyl)-1H-1,2,3-triazole-4-carboxamide] | 0.028
Cc1ccc(-n2cc(C(=O)NC(C)c3nnc(-c4ccccc4)s3)nn2)c(C)n1 (single isomer, unassigned) [Example 262, 1-(2,6-dimethylpyridin-3-yl)-N-(1-(5-phenyl-1,3,4-thiadiazol-2-yl)ethyl)-1H-1,2,3-triazole-4-carboxamide] | 0.085
CC(C)n1cc(C(=O)NCc2nnc(-c3ccccc3)s2)nn1 [Example 304, 1-isopropyl-N-((5-phenyl-1,3,4-thiadiazol-2-yl)methyl)-1H-1,2,3-triazole-4-carboxamide] | 0.004
Cc1ncccc1-n1cc(C(=O)NCc2nnc(-c3ccccc3)s2)nn1 [Example 315, 1-(2-methylpyridin-3-yl)-N-((5-phenyl-1,3,4-thiadiazol-2-yl)methyl)-1H-1,2,3-triazole-4-carboxamide] | 0.086
C[C@H](CCF)n1cc(C(=O)NCc2nnc(-c3ccccc3)s2)nn1 [Example 170, (R)-1-(4-fluorobutan-2-yl)-N-((5-phenyl-1,3,4-thiadiazol-2-yl)methyl)-1H-1,2,3-triazole-4-carboxamide] | 0.034
Cc1ccc(-n2cc(C(=O)NCc3nnc(-c4ccc(O)cc4)s3)nn2)c(C)n1 [Example 115, 1-(2,6-dimethylpyridin-3-yl)-N-((5-(4-hydroxyphenyl)-1,3,4-thiadiazol-2-yl)methyl)-1H-1,2,3-triazole-4-carboxamide] | 0.036
O=C(NCc1nnc(-c2ccccc2)s1)c1cn([C@H]2COC[C@@H]2O)nn1 [Example 189, 1-((3S,4R)-4-hydroxytetrahydrofuran-3-yl)-N-((5-phenyl-1,3,4-thiadiazol-2-yl)methyl)-1H-1,2,3-triazole-4-carboxamide] | 0.107
